A melting point compilation (Tetko et al.; mined from patent text by program, amines drawn as free bases though some values may be those of a salt)
Residues, ends and D or L forms follow the SMILES beside them. *: point of attachment. Boc = CC(C)(C)OC(=O)*; Bn = c1ccc(C*)cc1

Row | Compound | melting point
1 | CC(C)CNC(=O)[C@H](C)C[C@H](O)[C@H](CC1CCCCC1)NC(=O)[C@H](Cc1cscn1)NC(=O)[C@@H](CC(=O)N(C)Cc1ccccc1)Cc1ccccc1 | 118 to 120 °C
2 | COC1CCN2C(=O)c3cccc(NC(=O)Nc4cnc(C)cn4)c3C2C1 (configuration not stated) | 140 to 142 °C
3 | COc1cc(C(=O)N2CCC3(CC2)Cc2ccccc2O3)cc(OC)c1OC | 148 to 150 °C
4 | Cc1cc(Nc2ccnc(Nc3ccc(S(=O)(=O)N4CCC(CNCCC(=O)N(C)C)CC4)cc3)n2)ccc1F | 201 °C
5 | CC(C)Cc1nc2ccc(O)cc2c(-c2ccccc2F)c1C#N | 256 to 257 °C
6 | CC(C)Cn1c(CN)c(-c2ccccc2)c2cc(Br)ccc2c1=O | 129 to 130 °C
7 | Cc1ccccc1C(=O)Nc1ccc(C(=O)N2CCCC(O)c3cc(Cl)ccc32)c(C)c1 (configuration not stated) | 224 to 226 °C
8 | COc1ccc2c(c1)CC(=O)CO2 | 67 to 72 °C
9 | C=C(C)[C@@H]1CC=C(OC(=O)C2CCC(C(=O)OC3=CC[C@@H](C(=C)C)CC3)CC2)CC1 (some centres not stated) | 89 °C
10 | CCCCN=C(O)c1c(Cl)c(Sc2ccccc2)c(Sc2ccccc2)c(Cl)c1C(=O)O | 215 to 216 °C
11 | CCN(CC)c1ccc(F)c2nc3n(c12)CCCN3c1ccc(Cl)cc1Cl | 170 to 172 °C
12 | CCCn1cc2c(C3C(=O)Nc4ccc(Br)cc43)nc(NCCN(C)C)nc2n1 (configuration not stated) | 270 to 274 °C
13 | O=C(Cc1ccccc1)N1C[C@@H]2SCCC(c3ccccc3)(c3ccccc3)[C@@H]2C1 (racemic) | 210 °C
14 | CC(=O)OC1Oc2ccc(OS(C)(=O)=O)cc2C1(C)C (configuration not stated) | 84 to 85 °C
15 | COC(=O)CSSc1cc(Oc2ccc(C(F)(F)F)cc2Cl)ccc1[N+](=O)[O-] | 66 to 68 °C
16 | O=C(Nc1cccc([N+](=O)[O-])c1)C(=O)N1CCC(Cc2ccc(F)cc2)CC1 | 135 to 138 °C
17 | Nc1nnc2c3c(c(Cl)nn12)CCCC3 | 224 to 225 °C
18 | CCOC(=O)c1ncc(Cl)cc1NC(C)=O | 98 to 100 °C
19 | COc1ccc(C(=O)Nc2ccc3ccc(Oc4ccc(Cl)c(Cl)c4)nc3n2)cc1 | 180 °C
20 | COc1ccc(C=NC2CCN(c3cc4c(cc3F)c(=O)c(C(=O)O)cn4-c3ccc(F)cc3)C2)cc1 (configuration not stated) | 270 to 271 °C
21 | Cc1cc(CNC(=O)c2sc(N3C[C@@H](C)N(Cc4cc(F)cc(F)c4)C3=O)nc2C)no1 | 63 to 66 °C
22 | Cc1cccc2c1C[C@H](C(=O)O)[C@@H]2C (relative stereo) | 132 to 135 °C
23 | CC1(C)C(=O)Nc2cc3[nH]c(-c4ccc(-n5ccnc5)cc4)nc3cc21 | 300 °C
24 | O=S(=O)(Oc1ccc2sccc2c1)c1ccccc1 | 80 to 81 °C
25 | Brc1ccc(Cn2cncn2)cc1 | 77 to 79 °C

Row | Compound | melting point
26 | CCOC(=O)c1cc2c(ccc3nc(O)c(O)nc32)s1 | 357 °C
27 | COc1ccc(-c2ccc(OC3SCC(O)C(O)C3O)cn2)cn1 (configuration not stated) | 167 °C
28 | CCOC(=O)c1nc2c(Cl)nc(Cl)c(Cl)n2c1Cl | 132 °C
29 | CCOc1ccccc1-c1nc2n(C3CCCC3)[nH]c(CC)c-2c(=O)n1 | 146 to 147 °C
30 | Fc1ccc(Oc2cc3cnc(Cl)nc3cn2)c(F)c1 | 210 to 212 °C
31 | Cc1ccc(C(=O)O)c(Oc2ccc3c(c2)c(C(=O)O)c(CC(=O)O)n3-c2ccc(OC(C)C)cc2)n1 | 179 °C
32 | COc1cc(C=O)ccc1OCC#CI | 121 to 127 °C
33 | COC(=O)C(C)(C)S(=O)(=O)N1CCC(c2ccc(-n3ccc(OC)n3)c(C)c2)CC1 | 109 to 110 °C
34 | COc1ccc(CS[C@@H]2C[C@@H](CNCc3ccccc3)N(S(C)(=O)=O)C2)cc1 | 63 to 64 °C
35 | CCOC(=O)N1CCN(C2=C(O)C(=O)c3ccccc3C2=O)CC1 | 115 to 118 °C
36 | C=CCOc1cc(-n2nc(C)c(C)c2C)c(F)cc1Cl | 97 to 99 °C
37 | Cc1cc(Cl)cc(CO[C@H]2CCCN(Cc3nc(=O)[nH][nH]3)[C@H]2c2ccccc2)c1 | 227 to 228 °C
38 | CCC1(O)CCC2(C)C(CCC3C4CCC(C5(C)OCCO5)C4(C)CC(=O)C32)C1 (configuration not stated) | 144 °C
39 | CON(Cc1ccc(F)cc1)C(=O)c1nc2n(c(=O)c1OCc1ccccc1)CCOC2(C)C | 141 °C
40 | COc1ccc(Nc2ncc3c(n2)-c2sc(C)nc2CC3)cn1 | 210 to 211 °C
41 | CSC(=C[N+](=O)[O-])NCCSCc1cc(C)c(CN(C)C)s1 | 69 to 71 °C
42 | C[C@@H](Nc1ncnc2cc(F)c([N+](=O)[O-])cc12)c1ccccc1 | 203 °C
43 | C#CCN(Cc1ccc2nc(NC(=O)C(C)(C)C)[nH]c(=O)c2c1)c1ccc(C#N)cc1 | 183 to 186 °C
44 | Oc1cc(C(F)(F)F)nc2cc(C(F)(F)F)ccc12 | 184 to 185 °C
45 | CCOC(=O)c1cccc(NC(=O)N2CCc3cc(SC)c(C(F)(F)F)cc32)c1 | 195 to 197 °C
46 | CC12CCCC(C1)OC2=O (configuration not stated) | 37 to 38 °C
47 | CN(Cc1ccc2c(Br)c(OC(Cc3ccccc3)C(=O)O)ccc2c1)C(=O)c1oc2ccccc2c1CCc1ccccc1 (configuration not stated) | 87 to 90 °C
48 | CN1CCN(C)C1=Nc1ccccc1-c1ccccc1 | 90 to 91 °C
49 | CC(NC(=O)C(Cc1ccc(OCc2ccccc2)cc1)NC(=O)OC(C)(C)C)C(=O)NCC(=O)O (stereo not drawn) (Boc-Tyr(Bn)-Ala-Gly-OH; configuration not given here) | 104 to 107 °C
50 | C=CCN1CCN(C(=O)OC2C3=C(OCCS3)C(=O)N2c2ccc3ccc(Cl)nc3n2)CC1 (configuration not stated) | 254 °C

Row | Compound | melting point
51 | CC1CCOC(CBr)(c2ccc(Cl)cc2Cl)O1 (configuration not stated) | 69 to 70.5 °C
52 | CCOC(=O)c1ccc(-c2nc3ccc(C)cn3c2CNC(=O)CC(C)C)cc1 | 230 to 231 °C
53 | COc1ccc2c(c1)c1c3c(c(-c4ccccc4Cl)cc1n2CCC(=O)O)C(=O)NC3=O | 277 °C
54 | CCCCCCCCCCCCOc1ccc(C2SCCCS2)cc1OCCCCCCCCCCCC | 73 to 75 °C
55 | Cc1ccc2nccc(Cl)c2c1 | 47 to 51 °C
56 | CC(C)(C)C(O)(CNc1ccc(Cl)c(Cl)c1)Cn1cncn1 (configuration not stated) | 132 to 133 °C
57 | COc1cc(C(=O)N2CCC(CCN3CCC(C(=O)c4nc5ccccc5n4Cc4ccc(F)cc4)CC3)(c3ccccc3)C2)cc(OC)c1OC (configuration not stated) | 107 to 109 °C
58 | COc1ccc2c(c1)CCC[C@H]2NC(=O)c1cccc(Cl)c1O | 111 to 113 °C
59 | CCCN1Cc2cc(Oc3cccc(NCc4c(C)cc(C)cc4C)c3)ccc2N=C1N | 238 °C
60 | NS(=O)(=O)c1ccc(-c2noc(-c3cnn4c(C(F)F)cc(-c5ccc(C(F)(F)F)cc5)nc34)n2)s1 | 278 °C
61 | C=Cc1ccc(-c2cc(NC(=O)C3Cc4ccccc4C3)n[nH]2)cc1 | 193 to 195 °C
62 | Nc1ccccc1C(=O)NO | 140 to 142 °C
63 | Oc1ccc(C=C2c3ccccc3CCc3ccccc32)cc1O | 138 °C
64 | CN(Cc1cccc2c1C(=O)N(C1CCC(=O)NC1=O)C2=O)C(=O)c1ccco1 (configuration not stated) | 184 to 186 °C
65 | CC(C)S(=O)(=O)NC[C@@H](C)c1ccc(-c2ccc3c(c2)CC(=O)N3)cc1 | 170 to 171 °C
66 | CCCCCCCCCCCCCCOCC(CO)(CO)COCCCCCCCCCCCCCC | 63 to 64 °C
67 | CN(c1ccccc1)c1ncccc1NC(=O)c1ccccc1Cl | 145 to 146 °C
68 | CCN(CC)S(=O)(=O)c1c(Cl)c(Cl)c(Cl)c2nc(C(F)(F)F)[nH]c12 | 155 to 157 °C
69 | CCC1(O)CC2CC[C@]1(CS(=O)(=O)N1CCC3(C=Cc4ccccc43)CC1)C2(C)C (some centres not stated) | 171 to 173 °C
70 | CC(C)(C)OC(=O)N1CCC(c2ccc(N3C[C@H](CN=[N+]=[N-])OC3=O)cc2F)CC1 | 109 to 110 °C
71 | CC(=O)c1cn(-c2c(Cl)cc(C(F)(F)F)cc2Cl)nc1C#N | 166 to 168 °C
72 | O=C(O)C1CCCc2c(-c3ccc(Cl)cc3)noc2CC1 (configuration not stated) | 147 to 150 °C
73 | O=S1(=O)NCN(CCCCF)c2cc(Cl)c(Cl)cc21 | 141 to 143 °C
74 | COc1cc(Cl)c2nc(Cl)nc(O)c2c1OC | 252 to 253 °C
75 | CCOC(=O)C=C(c1ccc(I)cc1)c1ccc(I)cc1 | 95 to 100 °C

Row | Compound | melting point
76 | CCCCC(Oc1c(Br)cc(-c2ccc(-c3c(Cc4ccccc4)oc4ccccc34)cc2)cc1Br)C(=O)O (configuration not stated) | 75 to 76 °C
77 | O=c1ccc(-c2c(-c3ccccc3)nn3ccccc23)nn1C1CCC2(CC1)OCCO2 | 189 to 190 °C
78 | COCOc1ccc(CCc2c(CC(N)=O)cc(OC)c(OC)c2OC)cc1OCc1ccccc1 | 73 to 74 °C
79 | CC(=O)Nc1nc2c(Oc3cc(-c4ccc(C(F)(F)F)cc4I)ncn3)cccc2s1 | 242 to 243 °C
80 | CCCn1cnc2c1c(=O)n(CCCCCCOc1ccc(Cl)cc1)c(=O)n2C | 50 to 51 °C
81 | COc1ccc(OCCO[N+](=O)[O-])c(C2NC(C(=O)O)CS2)c1 (configuration not stated) | 110 to 112 °C
82 | CC(C)(/C=C\F)C(=O)Nc1ccc(Br)cc1 | 87 to 90 °C
83 | O=C(Cn1c2c(c(=O)n3nc(-c4ccccc4)cc13)CN(C1CCCCC1)C2=O)c1ccccc1 | 164 to 167 °C
84 | Cc1cc(C)c2c(c1C)OC(=O)C2c1ccccc1 (configuration not stated) | 129 to 130 °C
85 | Oc1cccc([C@H]2CCCC[C@H]2NCCCCc2ccccc2)c1 (racemic) | 115 to 116 °C
86 | C=Cc1cc(-c2ccc(S(C)(=O)=O)cc2)n(CC2CCCCC2)n1 | 136 to 138 °C
87 | O=C1CCc2c(-c3ccc(F)cc3)sc(-c3ccncc3)c21 | 155 to 157 °C
88 | O=C(Nc1c([N+](=O)[O-])cc(F)c(Cl)c1F)C(F)(F)F | 124 to 125 °C
89 | CCOC(=O)C(C)(C)Oc1ccc2c(c1)C=C(c1nccn1C)CO2 | 210 to 215 °C
90 | COc1cc2cc(C=O)c(Cl)nc2cc1F | 180 °C
91 | OC1(c2nccnc2Cl)CN2CCC1CC2 (configuration not stated) | 215 to 216 °C
92 | CCS(=O)(=O)CCOc1cc(C)c(-c2cccc(COc3ccc(CCC(=O)O)c(F)c3)c2)c(C)c1 | 126 to 127 °C
93 | C=Cc1cnc2c([N+](=O)[O-])cccc2c1 | 116 to 117 °C
94 | CCCc1nc2c(N)nc(C)c(C)c2n1CCOCc1ccccc1 | 99.5 to 100 °C
95 | Cc1cc2n(C)c3cc(Cl)ncc3c(=O)n2n1 | > 300 °C
96 | [N-]=[N+]=N[Si](c1ccccc1)(c1ccccc1)c1ccccc1 | 82 to 84 °C
97 | CC(C)NCC(O)COc1cccc2c1SCCC2 (configuration not stated) | 91 to 92 °C
